Measured values: patent US11813355B2, “Curcumin-loaded nanoemulsions, method of manufacture, and method of preventive treatment using the same” (UNIVERSIDAD DE CHILE, priority 2016, dated 2023)
In brackets after ≈: the same amount, converted by molar mass.

Legend:
[1] = system: Molt4 (human acute lymphoblastic leukemia); conditions: Molt4, 48-hour exposure; read-out: CI50 (the source's name); cited from earlier work
[2] = Persistence of curcumin fluorescence at the treatment site after tumor excision; type: in vivo, mice; conditions: post-surgery
[3] = system: HL-60 (promyelocytic leukemia); conditions: HL-60, 48-hour exposure; read-out: CI50 (the source's name); cited from earlier work
[4] = system: K562 (erythroleukemia); conditions: K562, 48-hour exposure; read-out: CI50 (the source's name); cited from earlier work
[5] = system: B16F10 (murine melanoma); conditions: B16F10, 48-hour exposure; read-out: CI50 (the source's name); cited from earlier work
[6] = system: Metastatic B16F10 murine melanoma cells; test: Viability assay (MTS), B16F10 cells; type: cell-based; conditions: Mus musculus, B16-F10, B16F10, 24 h treatment, read-out: IC50, decrease of proliferation/viability
Description: Metastatic B16F10 murine melanoma cells were cultured in RPMI 1640 (Roswell Park Memorial Institute) supplemented with 10% FBS, 2 mM glutamine, and antibiotics (100 U/mL penicillin and 100 μg/mL streptomycin) at 37° C. in 5% CO2.
The cultured metastatic B16F10 murine melanoma cells and cultured human embryonic kidney cells (HEK293T) were seeded in 96-well plates at a density of 1×10^4 cells per well and incubated for 24 h in culture medium. […] 2% Sodium dodecyl sulfate (SDS) and a standard cell medium were used as positive and negative cell controls, respectively. Cell proliferation was evaluated by the MTS® assay, according to the manufacturer's (Promega, Madison, WI) instructions. Absorbance was evaluated at 490 nm removing any background absorbance (620 nm) in plate reader (Tecan Infinite 200 pro NanoQuant).

[7] = system: U937 (monoblastic leukemia); conditions: U937, 48-hour exposure; read-out: CI50 (the source's name); cited from earlier work
[8] = system: uterine cervical cancer cell line HeLa; test: Viability assay (CellTiter 96 MTS), HeLa cells; type: cell-based, human
Description: To further determine the effect of the formulation on cell viability, the calorimetric method of tetrazolium salt reduction (CellTiter 96®) was used to establish a linear relationship between the number of metabolically active cells and the absorption intensity. […] 2500 HeLa cells were seeded per well, in a 96-well microplate, and the cells were incubated with 100 μL of Dulbecco's Modified Eagle Medium (DMEM) culture medium enriched with 10% fetal bovine serum (FBS), at 37° C. and 5% CO2. The day after seeding, the 100 μL of medium was removed, and it was replaced by 80 μL of clean culture medium. Then 20 μL of a treatment was applied, and the cells were incubated under the same temperature and CO2 conditions. 24 hours after the treatment was applied, the treatment was removed, the cells were subsequently washed three (3) times with phosphate-buffered saline (PBS), and 80 μL of medium without indicator was added to the cells and 20 μL of MTS. The cells were incubated for 1 hour, and the absorbance was measured at a wavelength of 490 nm in a microplate reader. […] Each assay was performed in triplicate. In addition, within each assay the same treatment was applied to a minimum of 5 wells.

[9] = system: HeLa; conditions: read-out: CI50 (the source's name); cited from earlier work
[10] = system: B16F10 cells; test: Matrigel invasion assay; type: cell-based, murine; conditions: normalized to untreated control
Description: B16F10 cells (5×10^4) were seeded, allowed to grow for 24 h, and treated with CUR-NEM, CUR and controls. Then, serum-starved cells (2×10^5) were seeded (24 h) over 8 μm-porous inserts covered with Matrigel (Matrigel Invasion Chamber 8.0 lm; BD Biosciences Bedford, MA, USA). […] The membranes were mounted in Mowiol, and observed under a light microscope. At least 10 fields were evaluated (at 40× magnification) to determine the number of cells per field. The values obtained were normalized to those obtained for cells without treatment (control). Averages of values from three independent experiments are shown (mean±SEM). Statistically significant differences compared with the corresponding control group are indicated (**P<0.001; ****<0.0001). Metastasis is a complex process that is known to require migration and invasion of malignant cells.

Curcumin fluorescence over basal levels, four (4) days after treatment [2]: not detectable | IC50 [6]: 34.8 ± 7.5 µg/mL (≈ 94.5 µM) | IC50 ([8]; Homo sapiens, 24-hour exposure, MTS, read-out: CI50 (the source's name)): 61.8 ± 18.1 µM
Compound: COc1cc(C=CC(=O)CC(=O)C=Cc2ccc(O)c(OC)c2)ccc1O [curcumin, 1,7-bis(4-hydroxy-3methoxyphenyl)-1,6-heptadien-3,5-dione]
IC50 [1]: ~14.4 µM | IC50 [3]: ~15.7 µM | IC50 [4]: ~38.7 µM | IC50 [5]: ~3.5 µM | IC50 [7]: ~30.1 µM | Concentration of maximum effectiveness (cytotoxicity) ([8]; after 24-hour exposure): 50 µM | IC50 [9]: 13.3 µM | Reduction in invasiveness [10]: 10 fold
